Experiments:
[1] = test system: gastric acid secretion; test: Inhibition of Gastric Acid Secretion in the Conscious Female Rat, iv; format: in vivo, rat (Sprague-Dawley)
Protocol: (§1) The potency for inhibition of acid secretion is measured in the dog, intravenously (iv) and in the female rat, intravenously (iv).
Female rats of the Sprague-Dawley strain are used. They are equipped with cannulated fistulae in the stomach (lumen) for collection of gastric secretions. A fourteen days recovery period after surgery is allowed before testing is commenced.
Before secretory tests, the animals are deprived of food but not water for 20 h. The stomach is repeatedly washed through the gastric cannula, and 6 ml of Ringer-Glucose given s.c. Acid secretion is stimulated with infusion during 3.5 h (1.2 ml/h, s.c.) of pentagastrin and carbachol (20 and 110 nmol/kg h, respectively), during which time gastric secretions are collected in 30-min fractions. Test substances or vehicle are given iv at 90 min after starting the stimulation, in a volume of 1 ml/kg. Gastric juice samples are titrated to pH 7.0 with NaOH, 0.1 mol/L, and acid output is calculated as the product of titrant volume and concentration. Further calculations are based on group mean responses from 4-7 rats. The acid output during the periods after administration of test substances or vehicle are expressed as fractional responses, setting the acid output in the 30-min period preceding administration to 1.0. Percentage inhibition is calculated from the fractional responses elicited by test compound and vehicle. […]

[2] = test system: gastric acid secretion; test: Inhibition of Gastric Acid Secretion in the Conscious Dog, iv; format: in vivo, dog (Harrier); settings: Canis lupus familiaris, histamine-stimulated, acid output 2 h after dosing, read-out: Inhibition of acid secretion iv administration ED50, Dog
Protocol: as §1
Harrier dogs of either sex were used. They were equipped with a duodenal fistula for the administration of test compounds or vehicle and a Heidenhain-pouch for the collection of gastric secretions.
Before secretory tests the animals were fasted for about 18 h but water was freely allowed. Gastric acid secretion was stimulated by a 4 h infusion of histamine dihydrochloride (12 ml/h) at a dose producing about 80% of the individual maximal secretory response, and gastric juice collected in consecutive 30-min fractions. Test substance or vehicle was given iv 1 h after starting the histamine infusion, in a volume of 0.5 ml/kg body weight. The acidity of the gastric juice samples were determined by titration to pH 7.0, and the acid output calculated. The acid output in the collection periods after administration of test substance or vehicle were expressed as fractional responses, setting the acid output in the fraction preceding administration to 1.0. Percentage inhibition was calculated from fractional responses elicited by test compound and vehicle. ED50 -values were obtained by graphical interpolation on log dose--response curves, or estimated from single-dose experiments under the assumption of the same slope of the dose-response curve for all test compounds. […]

[3] = Chemical Stability at pH 7 in aqueous buffer; format: physicochemical; settings: pH 7, 37° C., low concentration, read-out: Chemical stability at pH 7 half-life (t 1/2)
Protocol: The chemical stability of a compound of the invention is followed kinetically at low cencentration at 37° C. in aqueous buffer solution at different pH values. The results in Table 4 show the half life (t 1/2) at pH 7, that is the time period after which half the amount of the original compound remains unchanged.

[4] = test system: uptake of ^125 I in the thyroid gland; test: Effect on the Accumulation of ^125 I in the Thyroid Gland; format: in vivo, rat (Sprague-Dawley); settings: oral gavage, male rat, 4 h after ^125 I
Protocol: The effect of a compound within the invention of the formula I on the uptake of iodine into the thyroid gland is measured as an effect on the accumulation of ^125 I in the thyroid gland.
The accumulation of ^125 I in the thyroid gland was studied in male, Sprague-Dawley rats which were deprived of food for 24 hours before the test. The experimental protocol of Searle, C. E. et al. (Biochem J 1950, 47:77-81) was followed.
Test substances suspended in 0.5% buffered (pH 9) methocel, were administered by oral gavage in a volume of 5 ml/kg body weight. After 1 hour, ^125 I (300 kBqkg, 3 ml/kg) was administered by intraperitoneal injection. Four hours after ^125 I-administration, the animals were killed by CO2 -asphyxiation and bled. The thyroid gland together with a piece of the trachea was dissected out and placed in a small test tube for the assay of radioactivity in a gamma counter (LKB-Wallac model 1282 Compugamma). Percentage inhibition was calculated according to the formula 100 (1-T/P), where T and P is the mean radioactivety of thyroid glands from animals treated with test agent and placebo (buffered methocel), respectively. The statistical significane for a difference between test agent- and placebo-treated animals was assessed with the Mann-Whitney U-test (two-tailed). P<0.05 was accepted as significant.

[5] = Bioavailability in the Male Rat (id vs iv AUC); format: in vivo, rat (Sprague-Dawley); settings: blood, 4 umol/kg, intraduodenal vs iv, 4 μmol/kg, read-out: Bioavailability F %, Rat
Protocol: Biovailability is assessed by calculating the quotient between the area under plasma concentration (AUC) curve following intreduodenal (id) administration and intravenous (iv) administration from the rat.
Male adult rats of the Sprague-Dawley strain were used. One day, prior to the experiments, all rats were prepared by cannulation of the left carotid artery under anaesthesia. The rats used for the intravenous experiments, were also cannulated in the jugular vein. (Ref. V. Popovic and P. Popovic, J Appl Physiol 1960;15,727-728). The rats used for the intraduodenal experiments, were also cannulated in the upper part of the duodenum. The cannulas were exteriorized at the nape of the neck. The rats were housed individually after surgery and were deprived of food, but not water, before administration of the test substances. The same dose (4 μmol/kg) were given iv and id as a bolus for about one minute (2 ml/kg).
Blood samples (0.1-0.4 g) were drawn repeatedly from the carotid artery at intervals up to 4 hours after given dose. […]
The area under the blood concentration vs time curve, AUC, was determined by the linear trapezoidal rule and extrapolated to infinity by dividing the last determined blood concentration by the elimination rate constant in the terminal phase.
The systemic bioavailability (F %) following intraduodenal administration was calculated as [formula]

| half-life [3] [h] | Percent inhibition of 400 μmol/kg on the uptake of ^125 I in the thyroid gland [4] [%] | bioavailability [5] [%] | SMILES | inhibition of acid secretion, Rat ([1]; 1 μmol/kg iv) [%] | ED50 [2] [µmol/kg] | ED50 ([1]; 2 h, iv, pentagastrin and carbachol stimulated, second hour after drug, read-out: Inhibition of acid secretion iv administration ED50, Rat) [µmol/kg] |
| --- | --- | --- | --- | --- | --- | --- |
| – | – | – | CC(=O)c1cc2nc([S+]([O-])Cc3nccc4c3OCCO4)[nH]c2cc1C (centres unmarked) [Example 2, 5-Acetyl-6-methyl-2-[[(3,4-ethylendioxy-2-pyridinyl)methyl]sulfinyl]-1H-benzimidazole] | 14 | – | – |
| 8 | 0 | – | COC(=O)c1cc2nc([S+]([O-])Cc3nccc(OC)c3OC)[nH]c2cc1C (centres unmarked) [Example 3, 5-Carbomethoxy-6-methyl-2-[[(3,4-dimethoxy-2-pyridinyl)methyl]sulfinyl]-1H-benzimidazole] | – | 0.5 | – |
| 7.83 | -7 | > 100 | COc1ccnc(C[S+]([O-])c2nc3cc(C(C)=O)c(C)cc3[nH]2)c1OC (centres unmarked) [Example 4, 5-Acetyl-6-methyl-2-[[(3,4-dimethoxy-2-pyridinyl)methyl]sulfinyl]-1H-benzimidazole] | – | 0.74 | 0.9 |
| 4.5 | -6 | – | CCOC(=O)c1ccc2[nH]c([S+]([O-])Cc3nccc(OC)c3OC)nc2c1 (centres unmarked) [Example 5, 5-Carbethoxy-2-[[(3,4-dimethoxy-2pyridinyl)methyl]sulfinyl]-1H-benzimidazole] | – | – | – |

Reference: US5430042A, “Dialkoxy-pyridinyl-benzimidazole derivatives, process for their preparation and their pharmaceutical use” (priority 1990, dated 1995)
